Target: T1, At-pGlcT (At-pGlcTNTD) (Arabidopsis thaliana, UniProt B9DGP1)
T1 construct: gene At5g16150; plastid transit peptide (residues 1-82) replaced by E. coli PhoR residues 1-54 (membrane-targeting NTD); C-terminal 6xHis tag kept; expressed in E. coli sugar-uptake mutants, intact-cell uptake
T1 sequence (B9DGP1 83-546): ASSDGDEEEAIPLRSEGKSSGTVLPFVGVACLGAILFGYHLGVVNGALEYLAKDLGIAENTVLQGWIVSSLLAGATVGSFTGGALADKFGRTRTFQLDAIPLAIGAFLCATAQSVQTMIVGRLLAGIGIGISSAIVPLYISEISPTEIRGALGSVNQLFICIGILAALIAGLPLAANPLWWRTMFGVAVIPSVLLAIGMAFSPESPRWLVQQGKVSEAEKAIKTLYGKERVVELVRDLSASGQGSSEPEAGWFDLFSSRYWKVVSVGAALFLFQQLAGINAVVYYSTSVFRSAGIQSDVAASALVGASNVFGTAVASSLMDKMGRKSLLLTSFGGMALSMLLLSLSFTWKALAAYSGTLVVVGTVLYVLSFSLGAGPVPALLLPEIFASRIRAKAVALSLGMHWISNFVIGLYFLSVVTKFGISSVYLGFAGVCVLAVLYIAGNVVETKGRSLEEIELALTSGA
Experiment: competition with […]-ribose uptake in E. coli ΔrbsC ΔxylH ΔalsC
Assay type: cell-based
Conditions: 1 mM 14C-ribose, 10 mM unlabelled sugar, pH 7, 37 °C, 30 min, competitive

Structure (SMILES)	inhibition of 14C-ribose uptake at 10 mM (3H-fructose uptake also measured)	inhibition of 14C-ribose uptake at 10 mM (14C-glucose uptake also measured)
OCC1(O)OC[C@@H](O)[C@@H](O)[C@@H]1O (some centres unmarked) [fructose]	its presence also reduced the uptake of the radioactively labeled ribose	
OC[C@H]1OC(O)[C@H](O)[C@@H](O)[C@@H]1O (some centres unmarked) [glucose]		but also glucose was an equally efficient suppressor
